PMC6245189 (Molecules, 2008)

What was measured:
[1] = molecular target: T1, bovine testes hyaluronidase (BTH) (Bos taurus, UniProt Q2YDK3); experiment: Morgan-Elson assay at pH […]; type: biochemical; conditions: read-out: IC50 [μM] / 3.5
T1 sequence (Q2YDK3 36-553): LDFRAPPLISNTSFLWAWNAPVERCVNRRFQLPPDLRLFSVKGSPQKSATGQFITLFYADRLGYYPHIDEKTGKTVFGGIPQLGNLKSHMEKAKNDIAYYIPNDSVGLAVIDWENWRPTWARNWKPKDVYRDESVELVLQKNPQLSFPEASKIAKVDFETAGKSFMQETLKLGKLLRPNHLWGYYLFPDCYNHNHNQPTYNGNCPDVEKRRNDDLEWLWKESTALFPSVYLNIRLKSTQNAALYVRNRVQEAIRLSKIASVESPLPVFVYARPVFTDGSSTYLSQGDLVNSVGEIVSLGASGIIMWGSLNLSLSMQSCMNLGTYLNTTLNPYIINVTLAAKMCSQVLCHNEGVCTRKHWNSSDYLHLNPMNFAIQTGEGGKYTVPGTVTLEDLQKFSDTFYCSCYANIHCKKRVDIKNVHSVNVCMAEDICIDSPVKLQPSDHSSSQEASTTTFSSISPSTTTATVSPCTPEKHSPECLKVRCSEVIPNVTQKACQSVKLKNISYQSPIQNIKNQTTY

[2] = molecular target: T1, bovine testes hyaluronidase (BTH); experiment: stains-all assay at pH […] and Morgan-Elson assay at pH […]; type: biochemical; conditions: read-out: IC50 [μM] / pH7

Row | SMILES | IC50 [1] [µM] | IC50 [2] [µM]
1 | CCCCCCCCCCCCCCCC(=O)OC[C@H](O)[C@H]1OC(=O)C(O)=C1O [6-palmitoyl-L-ascorbic acid] | 8 | 
2 | Oc1ccc(-c2[nH]c3ccccc3c2-c2ccccc2)cc1 [compound 12, 4-(3-Phenyl-1H-indol-2-yl)phenol] |  | 107
